Test results as given in patent EP0334369B1, “Antiarteriosclerotic agent” (DAIICHI PHARMACEUTICAL CO., LTD., priority 1988, dated 1989).
Several values for one entry are separate records, joined by “and”; a condition that tells them apart may be missing. Equal entries are not always repeated. Structures can show the parent of a compound that is named as a salt.

System: Vascular smooth muscle cells (VSMC)
Experiment: Determination of DT (time required for doubling the number of cells) of vascular smooth muscle culture cells
Type: cell-based
Details: Treated Group; VSMC from aorta of SHR, 48-hour cultivation with Compound A; concentration not given; P < 0.02 vs. control group by Student's t-test; hydrate
Protocol: Effects on Proliferation of Vascular Smooth Muscle Culture Cells Vascular smooth muscle cells (hereinafter referred to as VSMC) were separated from the aorta of seven 7-week-old male SHR and cultured according to the explant method [cf. Ross, R.J. Cell Biol., Vol. 50, 172 (1971)]. Culture cells of passage Nos. 4 to 10 were used for testing. The proliferation ability of VSMC was evaluated in terms of time required for doubling the number of the cells (hereinafter referred to as DT) and ³H-TU according to the following test methods. 1) Determination of DT: VSMC (about 5 x 10⁴ cells) were cultured on a plate for 24 hours. Compound A was added to the culture, and cultivation was continued for an additional period of 48 hours. The number of cells before the addition of Compound A and after the 48-hour cultivation were counted by means of a light microscope, and DT was obtained therefrom by the equation: [formula] wherein t₁ is the time at which the number of cells before addition of Compound A is counted; t₂ is the time at which the number of cells after addition of Compound A is counted; N₁ is the number of cells at t₁; and N₂ is the number of cells at t₂.

SMILES: O=C(O)c1ccc2c(c1)CCC(Cn1ccnc1)C2 (stereo not shown) [Compound A, 6-(1-Imidazolylmethyl)-5,6,7,8-tetrahydro-2-naphthalenecarboxylic acid hydrochloride 1/2 hydrate]
- DT: 26.16 h and 27.81 h and 26.59 h and 28.94 h and 21.66 h and 24.41 h
